From patent publication US20100179118A1, “CYCLIC AMINOALKYLCARBOXAMIDE DERIVATIVE” (DAINIPPON SUMITOMO PHARMA CO., LTD., priority 2006, published 2010)

Legend:
[1] = system: TMA (trimellitic anhydride) repetitive application dermatitis model; test: Suppressive action on TMA (trimellitic anhydride) repetitive application dermatitis model; assay type: in vivo, mice; conditions: for inhibition in vivo at 20 mg/kg: Mus musculus, 8 h, oral twice (30 min before and 4 hr after induction), ear thickness vs solvent control, male BALB/c mice, read-out: right ear suppression (%) at 8 hr after final induction
[2] = system: BN rat DNCB repetitive application dermatitis model; test: Suppressive action on BN rat DNCB repetitive application dermatitis model; assay type: in vivo; conditions: dose 2 mg/kg, oral once a day; AUC of ear thickness increase vs solvent control; male BN rat
Method: Suppressive Action on BN Rat DNCB Repetitive Application Dermatitis Model
A 8-week-old male rat was sensitized by applying 30 μL of 1.5 wt % solution of dinitrochlorobenzene (DNCB) dissolved in acetone:olive oil=4:1 solution to the right ear on day 1 and 3 days later. Starting from one week thereafter, the same solution was consecutively applied to the right ear every other day in total of 6 times, whereby chronic dermatitis was induced in which the skin thickness increases with time. As for the level of dermatitis, the thickness was measured with a dial gauge thickness before application of the solution, and expressed by the difference from the measured thickness of the right ear immediately before induction on day 1 of the induction. The drug was suspended in 0.5 wt % tragacanth, and orally administered once a day immediately before induction on day 1 of the induction and after 24 hr value measurement the next day. The changes in the ear tumentia with time were monitored, and the area under the curve in a graph showing the values up to 48 hr after the final induction was calculated, from which the percent suppression relative to the area of the solvent control group was determined. As a comparison control compound, prednisolone, which is a steroid, was used.

| Structure (SMILES) | right ear suppression (%) at 8 hr after final induction ([1]; mouse, in vivo, po, 80 mg/kg) | inhibition in vivo at 20 mg/kg [1] | suppression (%) at 48 hr after final induction [2] |
| --- | --- | --- | --- |
| O=C(O)c1cccc(N(C(=O)CN2CCCC2)C2CCN(C(=O)c3ccc(C(F)(F)F)cc3)CC2)c1 [Example 227, N-(3-carboxylphenyl)-2-(pyrrolidin-1-yl)-N-[1-(4-trifluoromethylbenzoyl)piperidin-4-yl]acetamide] | 57.2% |  |  |
| O=C(c1ccc(Cl)cc1)N1CCC(N(C(=O)CN2CCOCC2)C2CCCCC2)CC1 [Example 65, N-[1-(4-chlorobenzoyl)piperidin-4-yl]-N-cyclohexyl-2-(morpholin-4-yl)acetamide] |  | 41% | 20.5% |
| C[C@]12C=CC(=O)C=C1CC[C@@H]1[C@@H]2[C@@H](O)C[C@@]2(C)[C@H]1CC[C@]2(O)C(=O)CO [prednisolone, reference compound] |  | 67.8% | 44.0% |
